From patent publication US20150065447A1, “SURVIVAL BENEFIT IN PATIENTS WITH SOLID TUMORS WITH ELEVATED C-REACTIVE PROTEIN LEVELS” (Incyte Corporation, priority 2013, published 2015)
Values joined by “and” are separate entries in the source; they are usually repeats but may differ in a detail not shown here. Equal values may be shown once.

Legend:
[1] = target: T1, human JAK2 (a.a. 828-1132) (Homo sapiens, UniProt O60674); assay: In vitro JAK Kinase Assay (HTRF), JAK2 (for JAK2/JAK1 ratio); format: biochemical; conditions: ratio of IC50s, 1 mM ATP
T1 construct: JAK2 (a.a. 828-1132); His tag (N); made in house; host or cells: insect cells (baculovirus)
T1 sequence (O60674 828-1132): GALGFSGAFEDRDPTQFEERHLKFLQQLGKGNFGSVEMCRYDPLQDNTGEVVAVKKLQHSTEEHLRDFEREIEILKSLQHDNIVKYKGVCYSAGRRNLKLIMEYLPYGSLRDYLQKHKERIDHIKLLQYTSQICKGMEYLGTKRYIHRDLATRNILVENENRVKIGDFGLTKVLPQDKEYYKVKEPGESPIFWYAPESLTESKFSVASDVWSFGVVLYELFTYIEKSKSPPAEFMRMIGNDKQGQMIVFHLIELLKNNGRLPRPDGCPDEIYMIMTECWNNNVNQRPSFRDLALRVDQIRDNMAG
Protocol: (§1) The catalytic activity of JAK1 and JAK2 was assayed by measuring the phosphorylation of a biotinylated peptide. The phosphorylated peptide was detected by homogenous time resolved fluorescence (HTRF). […] Reactions were carried out at room temperature for 1 hr and then stopped with 20 μL 45 mM EDTA, 300 nM SA-APC, 6 nM Eu-Py20 in assay buffer (Perkin Elmer, Boston, Mass.). Binding to the Europium labeled antibody took place for 40 minutes and HTRF signal was measured on a Fusion plate reader (Perkin Elmer, Boston, Mass.).

[2] = target: T2, human JAK1 (a.a. 837-1142) (Homo sapiens, UniProt P23458); assay: In vitro JAK Kinase Assay (HTRF), JAK1; format: biochemical; conditions: 1 mM ATP
T2 construct: human JAK1 (a.a. 837-1142); His tag (N); made in house; host or cells: insect cells (baculovirus)
T2 sequence (P23458 849-1154): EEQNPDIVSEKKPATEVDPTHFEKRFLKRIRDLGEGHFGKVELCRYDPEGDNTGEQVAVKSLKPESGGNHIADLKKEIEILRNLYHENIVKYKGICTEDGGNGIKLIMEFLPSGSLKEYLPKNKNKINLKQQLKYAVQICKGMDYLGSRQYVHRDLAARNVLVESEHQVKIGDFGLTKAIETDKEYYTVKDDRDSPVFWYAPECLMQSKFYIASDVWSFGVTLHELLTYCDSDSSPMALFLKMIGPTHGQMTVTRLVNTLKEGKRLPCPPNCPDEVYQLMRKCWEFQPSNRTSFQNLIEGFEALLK
Protocol: as §1

[3] = tested on: Subjects with metastatic pancreatic adenocarcinoma that is recurrent or treatment refractory; assay: Randomized, double-blind study of capecitabine + ruxolitinib phosphate vs capecitabine + placebo, survival by baseline CRP / mGPS; conditions: for Hazard ratio (Rux/Pbo): Cox regression with formal interaction testing; for Active vs Control Hazard Ratio: ruxolitinib vs placebo; for Number of Subjects with Disease Progression, Observed: progression-free survival (death or progressive disease by RECIST 1.1)
Protocol: Baseline C-reactive protein (CRP) levels were measured for each patient prior to treatment in Arm 1 and Arm 2. Serum CRP concentrations were measured by RMB (RBM multiplexed Luminex®) commercial assay (Myriad RBM). […] The baseline CRP level was calculated on a per patient basis. The patients comprised two groups. Group 1 included all patients who were randomized and took Study Drug. […] For Group 1, the CRP level was the last tested CRP level taken before first dose of Study Drug. For Group 2, the last available value of CRP was taken, if available, for example from screening procedures. With baseline CRP levels for all patients, the median was calculated using normal statistical methods known to one skilled in the art.

[4] = Cox regression analysis of overall survival using baseline predictors, CRP > 13 mg/L, ruxolitinib arm
[5] = overall survival, C-Reactive Protein > 13 (μg/mL), Intent-to-Treat, capecitabine + ruxolitinib arm, N = 31
[6] = overall survival, C-Reactive Protein > 13 (μg/mL), ruxolitinib arm, N = 31
[7] = overall survival, C-Reactive Protein ≦ 13 (μg/mL), Intent-to-Treat, capecitabine + ruxolitinib arm, N = 28
[8] = overall survival, C-Reactive Protein ≦ 13 (μg/mL), ruxolitinib arm, N = 28
[9] = patients with CRP<13 mg/L, ruxolitinib group
[10] = patients with CRP>13 mg/L, ruxolitinib group
[11] = progression-free survival, Table 3, C-Reactive Protein ≦ 13 (μg/mL), ruxolitinib arm, N = 28
[12] = progression-free survival, Table 4, C-Reactive Protein ≦ 13 (μg/mL), ruxolitinib arm, N = 31

C[C@@H](O)CNCc1cc(OC2CCN([C@H]3C[C@](CC#N)(n4cc(-c5ncnc6[nH]ccc56)cn4)C3)CC2)nc(C(F)(F)F)c1 [Compound 24, {trans-3-(4-{[4-({[(2R)-2-hydroxypropyl]amino}methyl)-6-(trifluoromethyl)pyridin-2-yl]oxy}piperidin-1-yl)-1-[4-(7H-pyrrolo[2,3-d]pyrimidin-4-yl)-1H-pyrazol-1-yl]cyclobutyl}acetonitrile]
JAK2/JAK1 [1]: >10 | IC50 [2]: < 10 nM

N#CC[C@H](C1CCCC1)n1cc(-c2ncnc3[nH]ccc23)cn1 [Ruxolitinib, ruxolitinib]
(%) subjects Censored [3, 4]: (20.0) % | (%) subjects who died, Observed [3, 4]: (80.0) % | Number subjects Censored [3, 4]: 6 | Number subjects who died, Observed [3, 4]: 24 | Hazard ratio (Rux/Pbo) ([3]; subgroup CRP > 13 mg/L): 0.473 | Hazard ratio (Rux/Pbo) ([3]; subgroup Karnofsky: 60-80): 0.799 | Hazard ratio (Rux/Pbo) ([3]; subgroup Low albumin): 0.618 | HR for progression-free survival (PFS) ([3]; intent-to-treat analysis including all randomized patients): 0.75 | (%) of Subjects Censored [3, 5]: ( 19.4%) | (%) of Subjects Died, Observed [3, 5]: ( 80.6%) | Number of Subjects Censored [3, 5]: 6 | Number of Subjects Died, Observed [3, 5]: 25 | Median Time to Event [3, 6]: 83.0 days | Month 3 Survival Rate(%) [3, 6]: 48.4% | Month 6 Survival Rate(%) [3, 6]: 41.5% | Month 9 Survival Rate(%) [3, 6]: 16.5% | Month 12 Survival Rate(%) [3, 6]: 11.0% | Active vs Control Hazard Ratio ([3]; overall survival, C-Reactive Protein > 13 (μg/mL), Cox regression): 0.473 | (%) of Subjects Censored [3, 7]: ( 28.6%) | (%) of Subjects Died, Observed [3, 7]: ( 71.4%) | Number of Subjects Censored [3, 7]: 8 | Number of Subjects Died, Observed [3, 7]: 20 | Median Time to Event [3, 8]: 185.5 days | Month 3 Survival Rate(%) [3, 8]: 82.1% | Month 6 Survival Rate(%) [3, 8]: 50.0% | Month 9 Survival Rate(%) [3, 8]: 37.3% | Month 12 Survival Rate(%) [3, 8]: 19.9% | Active vs Control Hazard Ratio ([3]; overall survival, C-Reactive Protein ≦ 13 (μg/mL), Cox regression): 0.887 | Hazard Ratio, Treatment (ruxolitinib vs placebo) ([3]; overall survival, CRP > 13 mg/L, Cox regression accounting for baseline characteristics): 0.50 and 0.501 | hazard ratio for PFS ([3]; patients with CRP<13 mg/L): 0.82 | probability of PFS at 3 months [3, 9]: 39% | probability of PFS at 6 months [3, 9]: 25% | probability of PFS at 9 months [3, 9]: 10% | HR for PFS ([3]; patients with CRP>13 mg/L): 0.62 | proportion showing disease stabilization (RECIST v1.1) ([3]; patients with CRP>13 mg/L receiving ruxolitinib with postbaseline assessments (N=19)): 68.4% | probability of progression-free survival at 3 months [3, 10]: 35% | probability of progression-free survival at 6 months [3, 10]: 21% | probability of progression-free survival at 9 months [3, 10]: 11% | HR for OS ([3]; patients with mGPS of 0 (N=51)): 0.91 | HR for OS ([3]; patients with mGPS of 1 (N=34)): 0.71 | HR for OS ([3]; patients with mGPS of 2 (N=36)): 0.49 | HR (survival) ([3]; post-hoc analysis, patients with CRP≦10 mg/L (N=51)): 0.91 | HR in favor of ruxolitinib (survival) ([3]; post-hoc analysis, patients with a CRP>10 mg/L (N=70)): 0.60 | Number of Subjects with Disease Progression, Observed ([3]; Table 3, C-Reactive Protein ≦ 13 (μg/mL), ruxolitinib arm, N = 28): 26 | Number of Subjects with Disease Progression, Observed ([3]; Table 4, C-Reactive Protein ≦ 13 (μg/mL), ruxolitinib arm, N = 31): 26 | (%) of Subjects Censored [3, 11]: ( 7.1%) | (%) of Subjects with Disease Progression, Observed [3, 11]: ( 92.9%) | Median Time to Event [3, 11]: 80.0 days | Month 3 Survival Rate(%) [3, 11]: 39.3% | Month 6 Survival Rate(%) [3, 11]: 25.0% | Month 9 Survival Rate(%) [3, 11]: 10.0% | Number of Subjects Censored [3, 11]: 2 | Active vs Control Hazard Ratio ([3]; progression-free survival, Table 3, C-Reactive Protein ≦ 13 (μg/mL)): 0.818 | (%) of Subjects Censored [3, 12]: ( 16.1%) | (%) of Subjects with Disease Progression, Observed [3, 12]: ( 83.9%) | Median Time to Event [3, 12]: 48.0 days | Month 3 Survival Rate(%) [3, 12]: 34.5% | Month 6 Survival Rate(%) [3, 12]: 20.7% | Month 9 Survival Rate(%) [3, 12]: 11.0% | Month 12 Survival Rate(%) [3, 12]: 0.0% | Number of Subjects Censored [3, 12]: 5 | Active vs Control Hazard Ratio ([3]; progression-free survival, Table 4, C-Reactive Protein ≦ 13 (μg/mL)): 0.619

C[C@H](NC(=O)c1cc(F)c(N2CC(CC#N)(n3cc(-c4ncnc5[nH]ccc45)cn3)C2)cc1F)C(F)(F)F [Compound 16, 4-{3-(cyanomethyl)-3-[4-(7H-pyrrolo[2,3-d]pyrimidin-4-yl)-1H-pyrazol-1-yl]azetidin-1-yl}-2,5-difluoro-N-[(1S)-2,2,2-trifluoro-1-methylethyl]benzamide]
JAK2/JAK1 [1]: >10 | IC50 [2]: < 10 nM

N#CC[C@]1(n2cc(-c3ncnc4[nH]ccc34)cn2)C[C@H](N2CCC(Oc3cc(CN4CC(O)C4)cc(C(F)(F)F)n3)CC2)C1 [Compound 11, {trans-3-(4-{[4-[(3-hydroxyazetidin-1-yl)methyl]-6-(trifluoromethyl)pyridin-2-yl]oxy}piperidin-1-yl)-1-[4-(7H-pyrrolo[2,3-d]pyrimidin-4-yl)-1H-pyrazol-1-yl]cyclobutyl}acetonitrile]
JAK2/JAK1 [1]: >10 | IC50 [2]: < 10 nM

C[C@H](O)CNCc1cc(OC2CCN([C@H]3C[C@](CC#N)(n4cc(-c5ncnc6[nH]ccc56)cn4)C3)CC2)nc(C(F)(F)F)c1 [Compound 25, {trans-3-(4-{[4-({[(2S)-2-hydroxypropyl]amino}methyl)-6-(trifluoromethyl)pyridin-2-yl]oxy}piperidin-1-yl)-1-[4-(7H-pyrrolo[2,3-d]pyrimidin-4-yl)-1H-pyrazol-1-yl]cyclobutyl}acetonitrile]
JAK2/JAK1 [1]: >10 | IC50 [2]: < 10 nM

N#CCC1(n2cc(-c3ncnc4[nH]ccc34)cn2)CN([C@H]2CC[C@@H](Oc3cc(CN4CC[C@H](O)C4)cc(C(F)(F)F)n3)CC2)C1 [Compound 22, {1-(cis-4-{[4-{[(3S)-3-hydroxypyrrolidin-1-yl]methyl}-6-(trifluoromethyl)pyridin-2-yl]oxy}cyclohexyl)-3-[4-(7H-pyrrolo[2,3-d]pyrimidin-4-yl)-1H-pyrazol-1-yl]azetidin-3-yl}acetonitrile]
JAK2/JAK1 [1]: >10 | IC50 [2]: < 10 nM

C[C@@H](CO)NCc1cc(OC2CCN([C@H]3C[C@](CC#N)(n4cc(-c5ncnc6[nH]ccc56)cn4)C3)CC2)nc(C(F)(F)F)c1 [Compound 23, {trans-3-(4-{[4-({[(1S)-2-hydroxy-1-methylethyl]amino}methyl)-6-(trifluoromethyl)pyridin-2-yl]oxy}piperidin-1-yl)-1-[4-(7H-pyrrolo[2,3-d]pyrimidin-4-yl)-1H-pyrazol-1-yl]cyclobutyl}acetonitrile]
JAK2/JAK1 [1]: >10 | IC50 [2]: < 10 nM

N#CCC1(n2cc(-c3ncnc4[nH]ccc34)cn2)CN(C2CCN(C(=O)c3ccnc(C(F)(F)F)c3F)CC2)C1 [Compound 7, {l-{l-[3-Fluoro-2-(trifluoromethyl)isonicotinoyl]piperidin-4-yl}-3-[4-(7H-pyrrolo[2,3-d]pyrimidin-4-yl)-1H-pyrazol-1-yl]azetidin-3-yl}acetonitrile]
JAK2/JAK1 [1]: >10 | IC50 [2]: < 10 nM

N#CC[C@]1(n2cc(-c3ncnc4[nH]ccc34)cn2)C[C@H](N2CCN(C(=O)c3ccnc(C(F)(F)F)n3)CC2)C1 [Compound 10, [trans-1-[4-(7H-pyrrolo[2,3-d]pyrimidin-4-yl)-1H-pyrazol-1-yl]-3-(4-{[2-(trifluoromethyl)pyrimidin-4-yl]carbonyl}piperazin-1-yl)cyclobutyl]acetonitrile]
JAK2/JAK1 [1]: >10 | IC50 [2]: < 10 nM
